Measurements taken from ChEMBL document CHEMBL5247651, “Oxadiazolopyridine Derivatives as Efficacious Mitochondrial Uncouplers in the Prevention of Diet-Induced Obesity” (J Med Chem, 2023).
Active and inactive are the calls of the source. The rule behind the calls is not given here.

What was measured:
Mus musculus [1] = assay: Anti-obesity activity in high-fat diet induced obesity C57BL/6 mouse model assessed as increase in oxygen consumption at 130 mg/kg, po measured upto 4 hrs by indirect calorimetric analysis; assay type: functional, organism-based
Mus musculus [2] = assay: Anti-obesity activity in high-sugar western diet induced obesity C57BL/6j mouse model assessed as decrease in glucose level AUC at 130 mg/kg per day, po administered measured after 10 days in presence of glucose by glucose tolerance test; assay type: functional, organism-based; conditions: time 10.0 day
[3] = mouse, in vivo, po, 10 mg/kg, 24 h
[4] = Drug distribution in fasted C57BL/6j mouse liver at 10 mg/kg, po measured after 2 hrs by LC-MS/MS analysis; assay type: ADME, organism-based; conditions: in vivo
[5] = Cmax in C57BL/6 mouse at 10 mg/kg, po administered via gavage measured upto 24 hrs by LC/MS-MS analysis; assay type: ADME, organism-based; parameters: dose 10 mg/kg, time < 24 hrs, route po; conditions: in vivo
Mus musculus [6] = assay: Anti-obesity activity in high-sugar western diet induced obesity C57BL/6j mouse model assessed as decrease in insulin level at 130 mg/kg per day, po administered measured after 2 weeks; assay type: functional, organism-based
Mus musculus [7] = assay: Anti-obesity activity in high-fat diet induced obesity C57BL/6 mouse model assessed as increase in energy expenditure at 130 mg/kg, po measured upto 4 hrs by indirect calorimetric analysis; assay type: functional, organism-based
[8] = Half life in C57BL/6 mouse at 10 mg/kg, po administered via gavage measured upto 24 hrs by LC/MS-MS analysis; assay type: ADME, organism-based; conditions: in vivo
[9] = Drug distribution in fasted C57BL/6j mouse […] white adipose tissue at 130 mg/kg, po by LC-MS/MS analysis; assay type: ADME, organism-based; conditions: in vivo
[10] = Induction of mitochondrial uncoupling activity in rat L6 cells assessed as increase in oxygen consumption rate at 0.37 to 200 uM measured after 90 mins by agilent Seahorse XF analyzer relative to BAM15; assay type: functional; conditions: dose 0.37-200 µM, 1.5 h
Mus musculus [11] = assay: Anti-obesity activity in high-sugar western diet induced obesity C57BL/6j mouse model assessed as decrease in rectal temperature at 130 mg/kg per day, po administered via gavage daily measured after 1 hr at day 11; assay type: functional, organism-based
Mus musculus [12] = assay: Anti-obesity activity in high-sugar western diet induced obesity C57BL/6j mouse model assessed as decrease in serum glucose level at 130 mg/kg per day, po administered measured after 2 weeks; assay type: functional, organism-based

F [3]: 75%
Drug uptake [4]: Active
Cmax [5]: 87 µM
t1/2 [8]: 1.2 h
Drug uptake [9]: Active
Compound: Oc1nc2nonc2cc1Nc1c(F)c(F)c(F)c(F)c1F
Activity (Mus musculus [1]): Active
Activity (Mus musculus [2]): Active
Activity (Mus musculus [6]): Active
Activity (Mus musculus [7]): Active
Activity [10]: 48%
Activity (Mus musculus [11]): Active
Activity (Mus musculus [12]): Active
